Assay results reported in ChEMBL document CHEMBL4665724, “Structure-activity relationship analysis of dammarane-type natural products as muscle-type creatine kinase activators” (Bioorg Med Chem Lett, 2020).
Calls of active or inactive are those of the source. The rule behind the calls is not given here.

Tests used:
[1] = biological target: Creatine kinase M-type (Homo sapiens) (UniProt P06732); test: Activation of human CK-MM assessed as increase in enzyme activity at 5 to 80 uM; details: dose microM 5-80
[2] = biological target: Creatine kinase M-type (Homo sapiens) (UniProt P06732); test: Binding affinity to recombinant human His-tagged CK-MM at 20 uM by Biolayer Interferometry analysis
[3] = biological target: Creatine kinase M-type (Homo sapiens) (UniProt P06732); test: Activation of human CK-MM assessed as increase in enzyme activity at 80 uM relative to control
[4] = biological target: Creatine kinase M-type (Homo sapiens) (UniProt P06732); test: Activation of human CK-MM assessed as increase in enzyme activity at 5 uM relative to control
[5] = biological target: Creatine kinase M-type (Homo sapiens) (UniProt P06732); test: Activation of human CK-MM assessed as increase in enzyme activity at 40 uM relative to control
[6] = biological target: Creatine kinase M-type (Homo sapiens) (UniProt P06732); test: Activation of human CK-MM assessed as increase in enzyme activity at 20 uM relative to control
[7] = biological target: Creatine kinase M-type (Homo sapiens) (UniProt P06732); test: Activation of human CK-MM assessed as increase in enzyme activity at 10 uM relative to control
[8] = biological target: Creatine kinase M-type (Oryctolagus cuniculus) (UniProt P00563); test: Activation of rabbit CK-MM assessed as increase in enzyme activity at 20 uM relative to control
[9] = biological target: Creatine kinase M-type (Oryctolagus cuniculus) (UniProt P00563); test: Binding affinity to rabbit CK-MM at 20 uM
[10] = biological target: Creatine kinase M-type (Oryctolagus cuniculus) (UniProt P00563); test: Activation of rabbit CK-MM assessed as increase in enzyme activity at 80 uM relative to control
[11] = biological target: Creatine kinase M-type (Oryctolagus cuniculus) (UniProt P00563); test: Activation of rabbit CK-MM assessed as increase in enzyme activity at 40 uM relative to control
[12] = biological target: Creatine kinase M-type (Oryctolagus cuniculus) (UniProt P00563); test: Activation of rabbit CK-MM assessed as increase in enzyme activity at 10 uM relative to control
[13] = biological target: Creatine kinase M-type (Oryctolagus cuniculus) (UniProt P00563); test: Activation of rabbit CK-MM assessed as increase in enzyme activity at 5 to 80 uM; details: dose microM 5-80

Sequence of Creatine kinase M-type (Oryctolagus cuniculus) (P00563 whole entry): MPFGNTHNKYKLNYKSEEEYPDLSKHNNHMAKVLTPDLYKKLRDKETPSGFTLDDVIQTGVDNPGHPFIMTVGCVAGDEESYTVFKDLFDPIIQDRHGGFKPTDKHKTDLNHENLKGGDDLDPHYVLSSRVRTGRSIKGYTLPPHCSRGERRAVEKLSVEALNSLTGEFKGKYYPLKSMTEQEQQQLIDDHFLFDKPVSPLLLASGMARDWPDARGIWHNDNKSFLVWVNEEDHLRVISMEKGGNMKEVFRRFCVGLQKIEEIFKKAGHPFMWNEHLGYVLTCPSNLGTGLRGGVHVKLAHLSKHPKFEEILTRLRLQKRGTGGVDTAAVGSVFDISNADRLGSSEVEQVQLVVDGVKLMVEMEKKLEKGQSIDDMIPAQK
Sequence of Creatine kinase M-type (Homo sapiens) (P06732 whole entry): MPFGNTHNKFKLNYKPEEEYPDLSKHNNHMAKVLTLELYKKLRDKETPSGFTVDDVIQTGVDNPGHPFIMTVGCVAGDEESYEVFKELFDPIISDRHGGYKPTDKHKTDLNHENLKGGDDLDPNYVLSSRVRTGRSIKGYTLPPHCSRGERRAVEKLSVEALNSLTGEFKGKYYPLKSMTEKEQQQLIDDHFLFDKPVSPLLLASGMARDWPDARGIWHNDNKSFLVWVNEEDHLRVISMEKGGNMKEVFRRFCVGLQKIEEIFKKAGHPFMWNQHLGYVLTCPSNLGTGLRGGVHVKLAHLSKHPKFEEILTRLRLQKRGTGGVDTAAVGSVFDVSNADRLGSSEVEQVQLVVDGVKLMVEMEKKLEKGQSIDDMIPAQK

| SMILES | Activity [3] [%] | Activity [4] [%] | Activity [5] [%] | Activity ([2]; filed as activator) | Activity [6] [%] | Activity [7] [%] | other results |
| --- | --- | --- | --- | --- | --- | --- | --- |
| CC1(C)CCC[C@](C)([C@H]2CC[C@]3(C)[C@@H]2[C@H](O)C[C@@H]2[C@@]4(C)CC[C@H](O)C(C)(C)[C@@H]4[C@H](O)C[C@]23C)O1 |  |  |  |  |  |  | Activity [1]: inactive; Activity [2]: inactive |
| CC(C)=CCC[C@@](C)(O)[C@H]1CC[C@]2(C)[C@@H]1[C@H](O)C[C@@H]1[C@@]3(C)CC[C@H](O)C(C)(C)[C@@H]3CC[C@]12C | 10.2 | 12.6 | 14.3 | Active | 23.5 | 14.7 |  |
| CC(C)(O)CCC[C@](C)(O)[C@H]1CC[C@]2(C)[C@@H]1[C@H](O)C[C@@H]1[C@@]3(C)CC[C@H](O)C(C)(C)[C@@H]3CC[C@]12C | 15.6 | 17.3 | 7.5 | Active |  | 8.6 |  |
| CC1(C)[C@@H](O)CC[C@]2(C)[C@H]3C[C@@H](O)[C@@H]4[C@@H]([C@@](C)(O)CCC(=O)O)CC[C@@]4(C)[C@]3(C)CC[C@@H]12 |  | 37.6 |  | Active |  | 37.4 | Activity ([3]; filed as activator): 52.1%; Activity ([1]; filed as activator): Dose-dependent effect; Activity ([5]; filed as activator): 49.8%; Activity ([6]; filed as activator): 49.7% |
| CC1(C)CCC[C@](C)([C@H]2CC[C@]3(C)[C@@H]2[C@H](O)C[C@@H]2[C@@]4(C)CC[C@H](O)C(C)(C)[C@@H]4CC[C@]23C)O1 | 15.4 |  | 14.4 | Active | 7.1 |  |  |
| CC(C)=CCC[C@](C)(O)[C@H]1CC[C@]2(C)[C@@H]1[C@H](O)C[C@@H]1[C@@]3(C)CC[C@H](O)C(C)(C)[C@@H]3[C@@H](O)C[C@]12C | 13.6 | 19.1 | 19.7 | Active | 32.2 | 20.6 | Activity [8]: 4.4%; Activity ([9]; filed as activator): Active; Activity [10]: 2.1%; Activity [11]: 3.4% |
| CC(C)(O)[C@H]1CC[C@@](C)([C@H]2CC[C@]3(C)[C@@H]2[C@H](O)C[C@@H]2[C@@]4(C)CC[C@H](O)C(C)(C)[C@@H]4CC[C@]23C)O1 |  |  |  |  |  |  | Activity [1]: inactive; Activity [2]: inactive |
| CC(C)=CCC[C@](C)(O)[C@H]1CC[C@]2(C)[C@@H]1[C@H](O)C[C@@H]1[C@@]3(C)CC[C@H](O)C(C)(C)[C@@H]3CC[C@]12C |  | 29.6 |  | Active | 39.2 | 35.4 | Activity ([3]; filed as activator): 53.2%; Activity ([1]; filed as activator): Dose-dependent effect; Activity [8]: 4.3%; Activity ([9]; filed as activator): Active; Activity ([5]; filed as activator): 54.3%; Activity [12]: 9.3%; Activity [11]: 4.2% |
| CC(C)=C[C@H]1C[C@](C)(O)[C@@H]2[C@H]3CC[C@@H]4[C@@]5(C)CC[C@H](O)C(C)(C)[C@@H]5CC[C@@]4(C)[C@@]34CO[C@@]2(C4)O1 |  | 16.9 | 5.7 |  |  | 11.9 | Activity [2]: inactive |
| CC(C)=CCC[C@](C)(O[C@@H]1O[C@H](CO)[C@@H](O)[C@H](O)[C@H]1O)[C@H]1CC[C@]2(C)[C@@H]1[C@H](O)C[C@@H]1[C@@]3(C)CC[C@H](O[C@@H]4O[C@H](CO)[C@@H](O)[C@H](O)[C@H]4O[C@@H]4O[C@H](CO)[C@@H](O)[C@H](O)[C@H]4O)C(C)(C)[C@@H]3CC[C@]12C |  |  |  |  |  |  | Activity [9]: inactive; Activity [13]: inactive |
| CC(C)=CCC[C@](C)(O[C@@H]1O[C@H](CO)[C@@H](O)[C@H](O)[C@H]1O)[C@H]1CC[C@]2(C)[C@@H]1[C@H](O)C[C@@H]1[C@@]3(C)CC[C@H](O)C(C)(C)[C@@H]3[C@@H](O[C@@H]3O[C@H](CO)[C@@H](O)[C@H](O)[C@H]3O)C[C@]12C |  |  |  |  |  |  | Activity [9]: inactive; Activity [13]: inactive |
| CC(C)=CCC[C@](C)(O)[C@H]1CC[C@]2(C)[C@@H]1[C@H](O)C[C@@H]1[C@@]3(C)CC[C@H](O[C@@H]4O[C@H](CO)[C@@H](O)[C@H](O)[C@H]4O)C(C)(C)[C@@H]3CC[C@]12C |  |  |  |  |  |  | Activity [8]: 3.1%; Activity ([9]; filed as activator): Active; Activity [11]: 3.5% |
